In US8889875B2, “Pyridyl derivatives as CFTR modulators” (Vertex Pharmaceuticals Incorporated, priority 2008, dated 2014) one finds Emax data, which are given here for 30 compounds.

For this test, the target named is T1, ΔF508-CFTR (Homo sapiens, UniProt P13569, DEL508-508).
T1 construct: expressed in transfected cells
T1 sequence (P13569 with tags, fused parts or gaps DEL508-508): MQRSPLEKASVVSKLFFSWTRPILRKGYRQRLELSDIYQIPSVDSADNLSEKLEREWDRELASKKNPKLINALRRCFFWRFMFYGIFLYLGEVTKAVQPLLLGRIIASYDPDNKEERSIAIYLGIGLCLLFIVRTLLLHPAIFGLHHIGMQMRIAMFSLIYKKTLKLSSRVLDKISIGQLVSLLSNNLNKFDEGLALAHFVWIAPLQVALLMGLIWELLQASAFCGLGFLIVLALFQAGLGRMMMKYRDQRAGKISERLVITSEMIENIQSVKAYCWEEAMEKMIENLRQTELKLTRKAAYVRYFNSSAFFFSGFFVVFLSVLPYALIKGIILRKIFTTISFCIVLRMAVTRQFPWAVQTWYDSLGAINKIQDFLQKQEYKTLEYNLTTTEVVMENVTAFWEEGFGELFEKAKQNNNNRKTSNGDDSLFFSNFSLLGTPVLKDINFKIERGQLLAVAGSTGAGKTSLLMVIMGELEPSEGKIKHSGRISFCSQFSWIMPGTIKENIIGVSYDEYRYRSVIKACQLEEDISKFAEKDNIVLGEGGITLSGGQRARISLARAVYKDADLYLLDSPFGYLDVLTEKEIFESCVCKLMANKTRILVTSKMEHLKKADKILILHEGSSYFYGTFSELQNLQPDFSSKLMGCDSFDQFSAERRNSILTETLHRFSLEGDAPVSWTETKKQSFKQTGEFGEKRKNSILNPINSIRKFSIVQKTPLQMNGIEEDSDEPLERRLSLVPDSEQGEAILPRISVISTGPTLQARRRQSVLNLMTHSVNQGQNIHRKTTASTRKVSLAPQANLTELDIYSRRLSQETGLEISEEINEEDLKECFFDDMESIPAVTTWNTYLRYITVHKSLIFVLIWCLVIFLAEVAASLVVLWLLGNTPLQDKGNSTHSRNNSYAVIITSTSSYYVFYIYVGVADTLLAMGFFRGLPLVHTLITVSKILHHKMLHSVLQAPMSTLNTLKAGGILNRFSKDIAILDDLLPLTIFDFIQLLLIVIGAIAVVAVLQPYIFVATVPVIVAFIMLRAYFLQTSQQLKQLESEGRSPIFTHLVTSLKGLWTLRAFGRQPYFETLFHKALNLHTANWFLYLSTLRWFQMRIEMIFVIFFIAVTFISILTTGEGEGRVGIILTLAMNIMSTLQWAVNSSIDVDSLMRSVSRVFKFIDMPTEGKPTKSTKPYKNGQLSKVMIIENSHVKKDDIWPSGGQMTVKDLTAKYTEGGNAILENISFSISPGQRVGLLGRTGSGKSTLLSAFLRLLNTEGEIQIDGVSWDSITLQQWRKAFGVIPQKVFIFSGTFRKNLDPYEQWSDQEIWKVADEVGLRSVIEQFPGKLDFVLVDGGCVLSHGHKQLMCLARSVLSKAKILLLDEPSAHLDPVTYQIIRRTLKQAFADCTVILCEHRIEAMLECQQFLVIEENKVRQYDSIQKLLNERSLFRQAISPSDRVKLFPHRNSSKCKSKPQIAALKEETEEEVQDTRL
Nature of the test: Membrane potential optical assay, identification of correction compounds (single-addition HTS format). It is filed as cell-based. The settings on record: PercentActivity; ΔF508-CFTR in NIH3T3 mouse fibroblasts; 16-24 hrs with compound; 10 μM forskolin and 20 μM genistein; read-out: BinnedMaxEfficacy. The source says: Membrane Potential Optical Methods for Assaying ΔF508-CFTR Modulation Properties of Compounds.
The assay utilizes fluorescent voltage sensing dyes to measure changes in membrane potential using a fluorescent plate reader (e.g., FLIPR III, Molecular Devices, Inc.) as a readout for increase in functional ΔF508-CFTR in NIH 3T3 cells. The driving force for the response is the creation of a chloride ion gradient in conjunction with channel activation by a single liquid addition step after the cells have previously been treated with compounds and subsequently loaded with a voltage sensing dye.
To identify small molecules that correct the trafficking defect associated with ΔF508-CFTR; a single-addition HTS assay format was developed. Assay Plates containing cells are incubated for ˜2-4 hours in tissue culture incubator at 37° C., 5% CO2, 90% humidity. Cells are then ready for compound exposure after adhering to the bottom of the assay plates.
The cells were incubated in serum-free medium for 16-24 hrs in tissue culture incubator at 37° C., 5% CO2, 90% humidity in the presence or absence (negative control) of test compound. The cells were subsequently rinsed 3× with Krebs Ringers solution and loaded with a voltage sensing redistribution dye. To activate ΔF508-CFTR, 10 μM forskolin and the CFTR potentiator, genistein (20 μM), were added along with Cl^−-free medium to each well. The addition of Cl^−-free medium promoted Cl^− efflux in response to ΔF508-CFTR activation and the resulting membrane depolarization was optically monitored using voltage sensor dyes.
Bath Solution #1: (in mM) NaCl 160, KCl 4.5, CaCl2 2, MgCl2 1, HEPES 10, pH 7.4 with NaOH.
Chloride-free bath solution: Chloride salts in Bath Solution #1 are substituted with gluconate salts.
NIH3T3 mouse fibroblasts stably expressing ΔF508-CFTR are used for optical measurements of membrane potential. The cells are maintained at 37° C. in 5% CO2 and 90% humidity in Dulbecco's modified Eagle's medium supplemented with 2 mM glutamine, 10% fetal bovine serum, 1×NEAA, β-ME, 1×pen/strep, and 25 mM HEPES in 175 cm^2 culture flasks. For all optical assays, the cells were seeded at ˜20,000/well in 384-well matrigel-coated plates and cultured for 2 hrs at 37° C. before culturing at 27° C. for 24 hrs. for the potentiator assay. For the correction assays, the cells are cultured at 27° C. or 37° C. with and without compounds for 16-24 hours.
As for `COc1ccccc1C(c1ccc(NC(=O)C2(c3ccc4c(c3)OCO4)CC2)nc1)N1CCC(O)CC1` (stereo not drawn) [Compound 58], the Emax was more than 100%.
For the compound `Cc1ccccc1Cc1cccc(NC(=O)C2(c3ccc4c(c3)OCO4)CC2)n1` [Compound 5], the Emax is more than 100%.
With `CCCOC(c1ccc(NC(=O)C2(c3ccc4c(c3)OCO4)CC2)nc1)c1ccccc1OC` (stereo not drawn) [Compound 33], the Emax is more than 100%.
Turning to `COc1ccccc1C(O)c1ccc(NC(=O)C2(c3ccc4c(c3)OCO4)CC2)nc1` (stereo not drawn) [Compound 44], the Emax was more than 100%.
As for `COc1ccccc1C(c1ccc(NC(=O)C2(c3ccc4c(c3)OCO4)CC2)nc1)N1CCOCC1` (stereo not drawn) [Compound 49], the Emax is more than 100%.
`O=C(Nc1ccc(Cc2ccccc2Cl)cn1)C1(c2ccc3c(c2)OCO3)CC1` [Compound 59]: the Emax was more than 100%.
On to `COC[C@@H]1CCCN1C(c1ccc(NC(=O)C2(c3ccc4c(c3)OCO4)CC2)nc1)c1ccccc1OC` (stereo partly drawn) [Compound 51], for which the Emax is more than 100%.
As for `CCN(C)C(c1ccc(NC(=O)C2(c3ccc4c(c3)OCO4)CC2)nc1)c1ccccc1OC` (stereo not drawn) [Compound 62], the Emax is more than 100%.
On to `CCc1ccnc(NC(=O)C2(c3ccc4c(c3)OCO4)CC2)c1` [Compound 2], for which the Emax was more than 100%.
For `O=C(Nc1cccc(CC2CCCCC2)n1)C1(c2ccc3c(c2)OCO3)CC1` [Compound 67] the value was more than 100%.
Turning to `COc1ccccc1C(=O)c1ccc(NC(=O)C2(c3ccccc3OC)CC2)nc1` [Compound 1], the Emax is 25 to 100%.
Consider `O=C(Nc1ccc(F)cn1)C1(c2ccc3c(c2)OCO3)CC1` [Compound 47], for which the Emax was more than 100%.
`COc1ccccc1N(C)c1cccc(NC(=O)C2(c3ccc4c(c3)OCO4)CC2)n1` [Compound 74]: the Emax was more than 100%.
For `COc1ccccc1C(OCCN1CCOCC1)c1ccc(NC(=O)C2(c3ccc4c(c3)OCO4)CC2)nc1` (stereo not drawn) [Compound 11], the Emax is more than 100%.
`COc1ccccc1Cc1ccc(NC(=O)C2(c3ccc(Cl)cc3)CC2)nc1` [Compound 46]: the Emax is more than 100%.
Take `O=C(c1ccccc1)c1ccc(NC(=O)C2(c3ccc4c(c3)OCO4)CC2)nc1` [Compound 14]: the Emax is more than 100%.
For `COc1ccccc1C(c1ccc(NC(=O)C2(c3ccc4c(c3)OCO4)CC2)nc1)N1CCCC1C(N)=O` (stereo not drawn) [Compound 45], the Emax is more than 100%.
Regarding `COCC1CCCN1C(c1ccc(NC(=O)C2(c3ccc4c(c3)OCO4)CC2)nc1)c1ccccc1OC` (stereo not drawn) [Compound 36], the Emax is more than 100%.
`CCc1ccnc(NC(=O)C2(c3ccc(OC)cc3)CC2)c1` [Compound 75]: the Emax lay within 25 to 100%.
For `CNC(c1ccc(NC(=O)C2(c3ccc4c(c3)OCO4)CC2)nc1)c1ccccc1OC` (stereo not drawn) [Compound 53] the value was more than 100%.
Regarding `O=C(Nc1ccccn1)C1(c2ccc3c(c2)OCO3)CC1` [Compound 69], the Emax was more than 100%.
On to `COCCN1CCN(C(c2ccc(NC(=O)C3(c4ccc5c(c4)OCO5)CC3)nc2)c2ccccc2OC)CC1` (stereo not drawn) [Compound 22], for which the Emax was 25 to 100%.
Take `COc1ccc(C2(C(=O)Nc3ccc(Cc4ccccc4OC)cn3)CC2)cc1` [Compound 8]: the Emax fell in the range of 25 to 100%.
For `Cc1cnc(NC(=O)C2(c3ccc4c(c3)OC(F)(F)O4)CC2)cc1-c1cccc(C(=O)O)c1` [Compound 50] the value was 25 to 100%; for `Cc1cccc(NC(=O)C2(c3ccc4c(c3)OCO4)CC2)n1` [Compound 72], more than 100%; for `COc1ccccc1C(=O)c1ccc(NC(=O)C2(c3ccccc3)CC2)nc1` [Compound 77], 25 to 100%.
With `COc1ccccc1C(c1ccc(NC(=O)C2(c3ccc4c(c3)OCO4)CC2)nc1)N(C)C` (stereo not drawn) [Compound 20], the Emax was more than 100%.
As to `COc1ccccc1Nc1cccc(NC(=O)C2(c3ccc4c(c3)OCO4)CC2)n1` [Compound 64], the Emax lay in the range of 25 to 100%.
As for `COc1ccc(C2(C(=O)Nc3ccc(C)cn3)CC2)cc1` [Compound 38], the Emax lay within 25 to 100%.
For `Cc1ccnc(NC(=O)C2(c3ccc4c(c3)OCO4)CC2)c1` [Compound 21] the value was more than 100%.
